The target of this assay is T1, Human M4 (Homo sapiens, UniProt P08173).
T1 construct: expressed in transfected cells
T1 sequence (P08173 1-479): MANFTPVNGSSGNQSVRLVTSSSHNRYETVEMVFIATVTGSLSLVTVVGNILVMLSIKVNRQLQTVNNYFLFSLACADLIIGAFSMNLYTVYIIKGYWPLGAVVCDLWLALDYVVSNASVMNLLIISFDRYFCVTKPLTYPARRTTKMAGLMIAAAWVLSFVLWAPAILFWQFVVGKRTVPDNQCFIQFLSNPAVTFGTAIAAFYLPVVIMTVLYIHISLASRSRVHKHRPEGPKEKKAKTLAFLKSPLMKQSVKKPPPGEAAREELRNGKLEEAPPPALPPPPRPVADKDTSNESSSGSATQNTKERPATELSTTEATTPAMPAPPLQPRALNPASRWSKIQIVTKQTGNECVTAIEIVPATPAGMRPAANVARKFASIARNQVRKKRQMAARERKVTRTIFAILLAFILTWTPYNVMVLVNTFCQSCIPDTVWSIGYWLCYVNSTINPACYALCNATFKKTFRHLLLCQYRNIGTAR
As to the kind of experiment: mAChR M4 cell-based functional assay (calcium flux, PAM mode). Also noted: Emax: dose or concentration left out as unconfirmed. The settings on record: for Emax at 30 µM: CHO-K1, % ACh maximum at 30 μM; for Emax at 30 µM / EC50: hM4-Gqi5 CHO-K1 cells; for EC50: concentration-dependent increase in the EC20 acetylcholine response. Put shortly: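 PAM potency (EC50) and Emax came from four-parameter fits of the rise in EC20 acetylcholine-evoked calcium signal (Fluo-4, FDSS, 1 Hz). Human M4/Gqi5 CHO-K1 stable line; 11-point 1:3 compound series preceded ACh EC20 addition at 144 s, with EC80 ACh added at 230 s.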
For orientation: Calcium flux is commonly read through the fluorescence of an indicator in the cells.

As usually defined, the Emax is the size of the effect at its maximum, as opposed to the concentration needed. As usually defined, the EC50 is the concentration needed to bring the measured effect to its halfway point. Regarding `Cc1c(N2CCC(Oc3ccc4c(c3)OCCO4)CC2)nn2c(=O)cc(C(C)C)nc2c1C` [Compound 12, 7-(4-((2,3-Dihydrobenzo[b][1,4]dioxin-6-yl)oxy)piperidin-1-yl)-2-isopropyl-8,9-dimethyl-4H-pyrimido[1,2-b]pyridazin-4-one], the maximal response (Emax) at 30 µM stood at 103% and the EC50 amounted to 59 nM.

As for `[2H]C1([2H])Oc2ccc(OC3CCN(c4nn5c(=O)ccnc5c(COC)c4C)CC3)cc2OC1([2H])[2H]` [Compound 19, 7-(4-((2,3-Dihydrobenzo[b][1,4]dioxin-6-yl-2,2,3,3-d4)oxy)piperidin-1-yl)-9-(methoxymethyl)-8-methyl-4H-pyrimido[1,2-b]pyridazin-4-one], the Emax at 30 µM amounted to 75% and the EC50 amounted to 460 nM.

Take `[2H]C1(Oc2ccc3c(c2)OC([2H])([2H])C([2H])([2H])O3)CCN(c2nn3c(=O)cc(C(C)C)nc3c(C)c2C)CC1` [Compound 96, 7-(4-((2,3-dihydrobenzo[b][1,4]dioxin-6-yl-2,2,3,3-d4)oxy)piperidin-1-yl-4-d)-2-isopropyl-8,9-dimethyl-4H-pyrimido[1,2-b]pyridazin-4-one]: the Emax at 30 µM came to 85% and the EC50 was determined as 99 nM.

For the compound `[2H]C1(Oc2ccc3c(c2)OC([2H])([2H])C([2H])([2H])O3)CCN(c2nn3c(=O)c(C)c(C)nc3cc2C)CC1` [Compound 47, 7-(4-((2,3-dihydrobenzo[b][1,4]dioxin-6-yl-2,2,3,3-d4)oxy)piperidin-1-yl-4-d)-2,3,8-trimethyl-4H-pyrimido[1,2-b]pyridazin-4-one], the maximum response (Emax) at 30 µM came to 81% and the EC50 was 51 nM.

Regarding `[2H]C1([2H])Oc2cc(OC3CCN(c4nn5c(=O)ccnc5cc4C)CC3)cc(F)c2OC1([2H])[2H]` [Compound 136, 7-(4-((8-fluoro-2,3-dihydrobenzo[b][1,4]dioxin-6-yl-2,2,3,3-d4)oxy)piperidin-1-yl)-8-methyl-4H-pyrimido[1,2-b]pyridazin-4-one], the Emax at 30 µM stood at 97% and the EC50 came to 73 nM.

Take `[2H]C1(Oc2ccc3c(c2)OC([2H])([2H])C([2H])([2H])O3)CCN(c2nn3c(=O)cc(C(F)(F)F)nc3cc2C)CC1` [Compound 45, 7-(4-((2,3-dihydrobenzo[b][1,4]dioxin-6-yl-2,2,3,3-d4)oxy)piperidin-1-yl-4-d)-8-methyl-2-(trifluoromethyl)-4H-pyrimido[1,2-b]pyridazin-4-one]: the Emax at 30 µM was 77% and the EC50 came out at 26 nM.

`[2H]C1(Oc2ccc3c(c2)OC([2H])([2H])C([2H])([2H])O3)CCN(c2nn3c(=O)cc(C(F)F)nc3cc2C)CC1` [Compound 65, 2-(difluoromethyl)-7-(4-((2,3-dihydrobenzo[b][1,4]dioxin-6-yl-2,2,3,3-d4)oxy)piperidin-1-yl-4-d)-8-methyl-4H-pyrimido[1,2-b]pyridazin-4-one]: the Emax at 30 µM turned out to be 108% and the concentration giving a half-maximal response (EC50) is 20 nM.

For `[2H]C1([2H])Oc2ccc(O[C@@H]3CCN(c4nn5c(=O)ccnc5cc4C)C[C@H]3F)cc2OC1([2H])[2H]` [Compound 41, 7-((3R,4R)-4-((2,3-dihydrobenzo[b][1,4]dioxin-6-yl-2,2,3,3-d4)oxy)-3-fluoropiperidin-1-yl)-8-methyl-4H-pyrimido[1,2-b]pyridazin-4-one], the Emax at 30 µM stood at 114% and the EC50 was found to be 159 nM.

In the case of `[2H]C1(Oc2ccc3c(c2)OC([2H])([2H])C([2H])([2H])O3)CCN(c2nn3c(=O)cc(COC)nc3c(C)c2C)CC1` [Compound 110, 7-(4-((2,3-dihydrobenzo[b][1,4]dioxin-6-yl-2,2,3,3-d4)oxy)piperidin-1-yl-4-d)-2-(methoxymethyl)-8,9-dimethyl-4H-pyrimido[1,2-b]pyridazin-4-one], the Emax at 30 µM stood at 80% and the EC50 was 44 nM.

Consider `[2H]C1(Oc2ccc3c(c2)OCCO3)CCN(c2nn3c(=O)cc(C)nc3cc2C)CC1` [Compound 62, 7-(4-((2,3-dihydrobenzo[b][1,4]dioxin-6-yl)oxy)piperidin-1-yl-4-d)-2,8-dimethyl-4H-pyrimido[1,2-b]pyridazin-4-one], for which the Emax at 30 µM was found to be 99% and the EC50 is 47 nM.

On to `Cc1cc2nccc(=O)n2nc1N1CC[C@@H](Oc2ccc3c(c2)OCCO3)C[C@H]1C` [Compound 116, 7-((2R,4R)-4-((2,3-dihydrobenzo[b][1,4]dioxin-6-yl)oxy)-2-methylpiperidin-1-yl)-8-methyl-4H-pyrimido[1,2-b]pyridazin-4-one], for which the Emax at 30 µM stood at 71% and the EC50 was 1330 nM.

`[2H]C1([2H])Oc2ccc(OC3CCN(c4nn5c(=O)cc(C)nc5c(C)c4C)CC3)cc2OC1([2H])[2H]` [Compound 5, 7-(4-((2,3-Dihydrobenzo[b][1,4]dioxin-6-yl-2,2,3,3-d4)oxy)piperidin-1-yl)-2,8,9-trimethyl-4H-pyrimido[1,2-b]pyridazin-4-one]: the maximal response (Emax) at 30 µM was determined as 81% and the EC50 was 36 nM.

As to `[2H]C1([2H])Oc2ccc(OC3CCN(c4nn5c(=O)c(C)c(C)nc5cc4C)CC3)cc2OC1([2H])[2H]` [Compound 4, 7-(4-((2,3-Dihydrobenzo[b][1,4]dioxin-6-yl-2,2,3,3-d4)oxy)piperidin-1-yl)-2,3,8-trimethyl-4H-pyrimido[1,2-b]pyridazin-4-one], the maximal effect (Emax) at 30 µM came to 90% and the EC50 was found to be 36 nM.

As for `CCCc1ccc(OC2CCN(c3nn4c(=O)ccnc4cc3C)CC2)cc1` [Compound 91, 8-methyl-7-(4-(4-propylphenoxy)piperidin-1-yl)-4H-pyrimido[1,2-b]pyridazin-4-one], the maximum response (Emax) at 30 µM turned out to be 70% and the EC50 was determined as 1070 nM.

On to `Cc1c(N2CCC(Oc3ccc4c(c3)OCCO4)CC2)nn2c(=O)ccnc2c1N1CCC1` [Compound 127, 9-(Azetidin-1-yl)-7-(4-((2,3-dihydrobenzo[b][1,4]dioxin-6-yl)oxy)piperidin-1-yl)-8-methyl-4H-pyrimido[1,2-b]pyridazin-4-one], for which the EC50 was found to be 1600 nM. In addition, the Emax (CHO-K1, read-out: Human M4 Emax (%)*) turned out to be 58%.

With `[2H]C1([2H])CC(Oc2ccc3c(c2)OC([2H])([2H])C([2H])([2H])O3)CC([2H])([2H])N1c1nn2c(=O)ccnc2cc1C` [Compound 137, 7-(4-((2,3-dihydrobenzo[b][1,4]dioxin-6-yl-2,2,3,3-d4)oxy)piperidin-1-yl-2,2,6,6-d4)-8-methyl-4H-pyrimido[1,2-b]pyridazin-4-one], the Emax at 30 µM is 105% and the EC50 is 45 nM.

With `Cc1cc(=O)n2nc(N3CCC(Oc4ccc5c(c4)CCNC5=O)CC3)c(C)cc2n1` [Compound 82, 2,8-dimethyl-7-(4-((1-oxo-1,2,3,4-tetrahydroisoquinolin-6-yl)oxy)piperidin-1-yl)-4H-pyrimido[1,2-b]pyridazin-4-one], the Emax at 30 µM was 74% and the EC50 amounted to 3340 nM.

Consider `[2H]C1([2H])Oc2ccc(O[C@@H]3CCN(c4nn5c(=O)ccnc5c(C)c4C)C[C@H]3F)cc2OC1([2H])[2H]` [Compound 128, 7-((3R,4R)-4-((2,3-dihydrobenzo[b][1,4]dioxin-6-yl-2,2,3,3-d4)oxy)-3-fluoropiperidin-1-yl)-8,9-dimethyl-4H-pyrimido[1,2-b]pyridazin-4-one], for which the Emax at 30 µM was determined as 125% and the EC50 came to 53 nM.

The values above are taken from patent US11884676B2, “Substituted pyrimido[1,2-b]pyridazines as positive allosteric modulators of the muscarinic acetylcholine receptor M4” (Vanderbilt University, priority 2020, dated 2024).
